# Reference: BigSolDB 2.1
smiles,measurement,setting,value
C=C1CC[C@H](O)C/C1=C/C=C1\CCC[C@]2(C)[C@@H]([C@H](C)CCCC(C)C)CC[C@@H]12,solubility (mole fraction),"in DMSO, 273.2 K",0.0041
same,solubility (mole fraction),"in DMSO, 278.2 K",0.00469
same,solubility (mole fraction),"in DMSO, 283.2 K",0.00533
same,solubility (mole fraction),"in DMSO, 288.2 K",0.00601
same,solubility (mole fraction),"in DMSO, 298.2 K",0.00723
same,solubility (mole fraction),"in PEG-400, 273.2 K",0.0135
same,solubility (mole fraction),"in PEG-400, 278.2 K",0.0162
same,solubility (mole fraction),"in PEG-400, 283.2 K",0.0191
same,solubility (mole fraction),"in PEG-400, 288.2 K",0.0222
same,solubility (mole fraction),"in PEG-400, 298.2 K",0.0291
same,solubility (mole fraction),"in ethanol, 273.2 K",0.136
same,solubility (mole fraction),"in ethanol, 278.2 K",0.144
same,solubility (mole fraction),"in ethanol, 283.2 K",0.153
same,solubility (mole fraction),"in ethanol, 288.2 K",0.162
same,solubility (mole fraction),"in ethanol, 298.2 K",0.177
same,solubility (mole fraction),"in ethyl acetate, 273.2 K",0.0904
same,solubility (mole fraction),"in ethyl acetate, 278.2 K",0.109
same,solubility (mole fraction),"in ethyl acetate, 283.2 K",0.131
same,solubility (mole fraction),"in ethyl acetate, 288.2 K",0.15
same,solubility (mole fraction),"in ethyl acetate, 298.2 K",0.195
same,solubility (mole fraction),"in ethylene glycol, 273.2 K",0.000113
same,solubility (mole fraction),"in ethylene glycol, 278.2 K",0.000161
same,solubility (mole fraction),"in ethylene glycol, 283.2 K",0.000234
same,solubility (mole fraction),"in ethylene glycol, 288.2 K",0.000318
same,solubility (mole fraction),"in ethylene glycol, 298.2 K",0.000524
same,solubility (mole fraction),"in isopropanol, 273.2 K",0.19
same,solubility (mole fraction),"in isopropanol, 278.2 K",0.202
same,solubility (mole fraction),"in isopropanol, 283.2 K",0.215
same,solubility (mole fraction),"in isopropanol, 288.2 K",0.225
same,solubility (mole fraction),"in isopropanol, 298.2 K",0.245
same,solubility (mole fraction),"in n-butanol, 273.2 K",0.151
same,solubility (mole fraction),"in n-butanol, 278.2 K",0.157
same,solubility (mole fraction),"in n-butanol, 283.2 K",0.163
same,solubility (mole fraction),"in n-butanol, 288.2 K",0.169
same,solubility (mole fraction),"in n-butanol, 298.2 K",0.169
same,solubility (mole fraction),"in propylene glycol, 273.2 K",0.00142
same,solubility (mole fraction),"in propylene glycol, 278.2 K",0.00176
same,solubility (mole fraction),"in propylene glycol, 283.2 K",0.00209
same,solubility (mole fraction),"in propylene glycol, 288.2 K",0.00249
same,solubility (mole fraction),"in propylene glycol, 298.2 K",0.00337
same,solubility (mole fraction),"in sec-butanol, 273.2 K",0.154
same,solubility (mole fraction),"in sec-butanol, 278.2 K",0.161
same,solubility (mole fraction),"in sec-butanol, 283.2 K",0.168
same,solubility (mole fraction),"in sec-butanol, 288.2 K",0.176
same,solubility (mole fraction),"in sec-butanol, 298.2 K",0.187
same,solubility (mole fraction),"in transcutol, 273.2 K",0.369
same,solubility (mole fraction),"in transcutol, 278.2 K",0.375
same,solubility (mole fraction),"in transcutol, 283.2 K",0.382
same,solubility (mole fraction),"in transcutol, 288.2 K",0.39
same,solubility (mole fraction),"in transcutol, 298.2 K",0.403
same,solubility (mole fraction),"in water, 273.2 K",1.87e-07
same,solubility (mole fraction),"in water, 278.2 K",2.9e-07
same,solubility (mole fraction),"in water, 283.2 K",4.22e-07
same,solubility (mole fraction),"in water, 288.2 K",5.67e-07
same,solubility (mole fraction),"in water, 298.2 K",1.03e-06
